The assay has as its target T1, GAβ-dependent amyloid fibril formation (Human Aβ1-40 + GM1-containing liposome) (Homo sapiens, UniProt P05067).
T1 construct: Human Aβ1-40 (cat. #4307-v, prepared by Peptide Institute); purchased Peptide Institute 4307-v
Description: Thioflavin T (ThT) assay of GAβ-dependent amyloid fibril formation (Aβ1-40 with GM1-containing liposome). It is filed as biochemical. The method, boiled down: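 Human Aβ1-40 (75 μM stock) pre-incubated 10 min at room temperature with compound (75 or 15 μM solution), then GM1-containing cholesterol/sphingomyelin liposome added and incubated 37° C, 18 hours. Fibrils quantified by ThT fluorescence (ex 430/em 490 nm, pH 8.5 glycine buffer); inhibition as ratio to compound-free control.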

[1] abbreviates: inhibition rate against amyloid fibril formation, final concentration of the compound 25 μM, read-out: Inhibitory activity ABC evaluation.
[2] abbreviates: @25 μM, read-out: ThT Inhibitory activity (% inhibition).
Where [3] appears, read: inhibition rate against amyloid fibril formation, final concentration of the compound 25 μM.

The structures appear in SMILES notation. Like-named read-outs stand apart in the source and are kept apart here. Some results are limits rather than exact numbers.

This is an account of results in patent US10538516B2, “Oxadiazole derivative and pharmaceutical containing same” (National Center for Geriatrics and Gerontology, priority 2015, dated 2020).

T1 sequence (P05067 672-711 limits assumed): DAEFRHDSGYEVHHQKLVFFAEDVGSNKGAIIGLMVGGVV

Take `C[C@H](O)[C@H](NC(=O)c1ccc(Cl)cc1)c1nc(-c2ccc(OC(F)(F)F)cc2)no1` [Compound 127, 4-chloro-N-((1S,2S)-2-hydroxy-1-(3-(4-(trifluoromethoxy)phenyl)-1,2,4-oxa-diazol-5-yl)propyl) benzamide]: the inhibition at 25 µM under setting [1] was in the range of 40 to 80%.

Regarding `O=C(c1c[nH]c2ccccc12)N1C[C@H](O)C[C@H]1c1nc(-c2ccc(OC(F)(F)F)cc2)no1` [Compound 47, ((2S,4R)-4-hydroxy-2-[3-{4-(trifluoro-methoxy)phenyl}-1,2,4-oxadiazol-5-yl]pyrrolidin-1-yl)(1H-indol-3-yl)methanone], under setting [1], the inhibition at 25 µM is < 40%. Same read-out and setting: with `O=C(N[C@@H](CO)c1nc(-c2ccc(C(F)(F)F)cc2)no1)c1cc(F)cc(F)c1` [Compound 196, 3,5-difluoro-N-[(1S)-2-hydroxy-1-{3-[4-(trifluoromethyl)phenyl]-1,2,4-oxadiazol-5-yl}ethyl]benzamide] the figure was > 80%. The same measure, in the same setting: with `O=C(N[C@@H](CO)c1nc(-c2cccc(C(F)(F)F)c2)no1)c1ccc(N2CCCC2)cc1` [Compound 221, N-[(1S)-2-hydroxy-1-{3-[3-(trifluoromethyl)phenyl]-1,2,4-oxadiazol-5-yl}ethyl]-4-(pyrrolidin-1-yl) benzamide] the figure was > 80%; with `O=C(N[C@@H](CO)c1nc(-c2ccc(C(F)(F)F)cc2)no1)c1ccc(F)c(Cl)c1` [Compound 195, 3-chloro-4-fluoro-N-[(1S)-2-hydroxy-1-{3-[4-(trifluoromethyl)phenyl]-1,2,4-oxadiazol-5-yl}ethyl]benzamide], > 80%. Take `O=C(N[C@@H](CO)c1nc(-c2cccc(C(F)(F)F)c2)no1)c1cn2ccccc2n1` [Compound 244, N-[(1S)-2-hydroxy-1-{3-[3-(trifluoromethyl)phenyl]-1,2,4-oxadiazol-5-yl}ethyl]imidazo[1,2-a]pyridine-2-carboxamide]: the inhibition at 25 µM under setting [1] was < 40%.

Turning to `Cl.O=C(N[C@@H](CO)c1nc(-c2ccc(C(F)(F)F)cn2)no1)c1ccc(F)cc1` [Compound 206, 4-fluoro-N-[(1S)-2-hydroxy-1-{3-[5-(trifluoromethyl)pyridin-2-yl]-1,2,4-oxadiazol-5-yl}ethyl]benzamide hydrochloride], under setting [2], the inhibition at 25 µM came to 55%. Under setting [3], the “Inhibitory activity ABC evaluation” value is “B (40% or more and less than 80% were evaluated as B)”. On to `O=C(N[C@@H](CO)c1nc(-c2cccc(C(F)(F)F)c2)no1)c1c[nH]c2ccccc12` [Compound 243, N-[(1S)-2-hydroxy-1-{3-[3-(trifluoromethyl)phenyl]-1,2,4-oxadiazol-5-yl}ethyl]-1H-indole-3-carboxamide], for which, under setting [1], the inhibition at 25 µM is < 40%. On to `O=C(N[C@@H](CO)c1nc(-c2ccc(OC(F)(F)F)cc2)no1)c1ccccc1` [Compound 92, (S)-N-(2-hydroxy-1-[3-{4-(tri-fluoromethoxy)phenyl}-1,2,4-oxadiazol-5-yl]ethyl)benzamide], for which, under “@5 μM, read-out: ThT Inhibitory activity (% inhibition)”, the inhibition at 5 µM was 51%. Further, the inhibition at 25 µM is, setting by setting: under setting [2], 81%; under setting [1], > 80%. Consider `O=C(N[C@@H](CO)c1nc(-c2cccc(C(F)(F)F)c2)no1)c1ccccc1` [Compound 177, N-[(1S)-2-hydroxy-1-{3-[3-(trifluoromethyl)phenyl]-1,2,4-oxadiazol-5-yl}ethyl] benzamide], for which the inhibition at 25 µM under setting [1] was > 80%. With `O=C(N[C@@H](CO)c1nc(-c2ccc(C(F)(F)F)cn2)no1)c1ccc(Cl)cc1` [Compound 205, 4-chloro-N-[(1S)-2-hydroxy-1-{3-[5-(trifluoromethyl)pyridin-2-yl]-1,2,4-oxadiazol-5-yl}ethyl]benzamide], the “Inhibitory activity ABC evaluation” value under setting [3] is “B (40% or more and less than 80% were evaluated as B)”. Regarding `O=C(N[C@@H](CO)c1nc(-c2ccc(OC(F)(F)F)cc2)no1)c1ccc(F)cc1` [Compound 69, (S)-4-fluoro-N-(2-hydroxy-1-[3-{4-(trifluoro-methoxy)phenyl}-1,2,4-oxadiazol-5-yl]ethyl) benzamide], the inhibition at 25 µM is 87% under setting [2] and > 80% under setting [1].
